Source: patent publication US20040224989A1, “S-lansoprazole compositions and methods” (priority 1999, published 2004)
Where two headings read alike, the source gives them in different places.

Key:
[1] = in humans; cited from earlier work
[2] = test system: hepatic drug metabolizing enzyme systems; conditions: relative to omeprazole; cited from earlier work
gastric acid secretion = conditions: in humans; cited from earlier work
serum gastrin = conditions: humans, on administration; cited from earlier work
stability at low pH = assay type: physicochemical
Description: The terms “pharmaceutically acceptable salts” or “a pharmaceutically acceptable salt thereof” refer to salts prepared from pharmaceutically acceptable non-toxic bases. […] Suitable pharmaceutically acceptable base addition salts for the compound of the present invention include metallic salts of aluminum, calcium, lithium, magnesium, potassium, sodium, titanium and zinc or organic salts made from lysine, N,N′-dibenzylethylenediamine, chloroprocaine, choline, diethanolamine, ethylenediamine, meglumine (N-methylglucamine) and procaine. If any salt is to be used, sodium salts are preferred.

[3] = pharmacokinetic and duration profile of the S(−) isomer; assay type: in vivo; conditions: compared with racemic lansoprazole
Description: Syndrome, psoriasis and other disorders, including those that would benefit from an inhibitory action on H^+, K^+-ATPase in that it provides this effective treatment while substantially reducing the adverse effects of racemic lansoprazole including, but not limited to, hepatocellular neoplasia, gastric carcinoids, headache, diarrhea and skin alterations.

canine parietal cells = conditions: isolated canine parietal cells; (+) versus (−) enantiomer; Nagaya et al.; cited from earlier work
CYP3A4 = CYP3A4 (Homo sapiens, UniProt P08684); experiment: metabolism by CYP3A4
CYP2D6 [4] = experiment: metabolism by CYP2D6; conditions: CYP2D6 is the polymorphically expressed enzyme
CYP2D6 [5] = test system: CYP2D6

Sequence of CYP3A4 (P08684 whole entry): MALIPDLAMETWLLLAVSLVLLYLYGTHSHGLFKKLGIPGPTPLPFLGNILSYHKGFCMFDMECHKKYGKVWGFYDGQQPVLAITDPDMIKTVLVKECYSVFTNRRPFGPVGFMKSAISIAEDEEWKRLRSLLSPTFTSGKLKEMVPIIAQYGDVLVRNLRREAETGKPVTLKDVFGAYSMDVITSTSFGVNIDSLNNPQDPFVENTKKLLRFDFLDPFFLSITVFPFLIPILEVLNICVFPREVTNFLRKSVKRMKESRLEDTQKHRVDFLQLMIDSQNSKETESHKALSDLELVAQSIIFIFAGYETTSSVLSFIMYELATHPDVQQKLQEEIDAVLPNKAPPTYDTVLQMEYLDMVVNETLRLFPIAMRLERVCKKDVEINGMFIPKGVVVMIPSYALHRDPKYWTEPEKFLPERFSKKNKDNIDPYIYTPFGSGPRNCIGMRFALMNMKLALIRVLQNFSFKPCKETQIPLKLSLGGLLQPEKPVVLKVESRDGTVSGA

| SMILES | serum half-life [1] | effects on hepatic drug metabolizing enzyme systems [2] | duration of the acid inhibitory effect (gastric acid secretion) | fasting serum gastrin levels (serum gastrin) | stability at low pH (stability at low pH) | AUC (area under the curve) [3] | duration [3] | first pass metabolism [3] | onset [3] | effect on acid formation stimulated by db-cAMP (canine parietal cells) | metabolism by CYP3A4 (CYP3A4) | metabolism by CYP2D6 (CYP2D6 [4]) | metabolism by CYP2D6 (CYP2D6 [5]) |
| --- | --- | --- | --- | --- | --- | --- | --- | --- | --- | --- | --- | --- | --- |
| Cc1c(OCC(F)(F)F)ccnc1C[S+]([O-])c1nc2ccccc2[nH]1 (racemic) [racemic lansoprazole, 2-[3-methyl-4-(2,2,2-trifluoroethoxy)pyrid-2-yl]methylsulfinyl-benzimidazole] | about 1.5 hours | comparable to omeprazole | about 24 hours | significantly elevated | – | – | – | – | – | – | – | – | – |
| Cc1c(OCC(F)(F)F)ccnc1C[S+]([O-])c1nc2ccccc2[nH]1 (single isomer, unassigned; (-)) [S(−) lansoprazole, (−) isomer of 2-[3-methyl-4-(2,2,2-trifluoroethoxy)pyrid-2-yl]methylsulfinyl-benzimidazole] | – | – | – | – | unstable at low pH | higher AUC | longer duration | lower first pass metabolism | more rapid onset | almost identical | metabolized by both CYP2D6 and CYP3A4 | metabolized by both CYP2D6 and CYP3A4 | – |
| Cc1c(OCC(F)(F)F)ccnc1C[S@@+]([O-])c1nc2ccccc2[nH]1 [R(+) lansoprazole, reference compound] | – | – | – | – | – | – | – | – | – | almost identical | metabolized only by CYP2D6 | – | metabolized only by CYP2D6 |
